# Measured values as given in US6166290A, “Glutathione-S-conjugate transport in plants” (The Trustees of the University of Pennsylvania, priority 1997, dated 2000).
# Values joined by “and” are separate entries in the source; they are usually repeats but may differ in a detail not shown here. Identical values can stand only once.
# How the values were obtained:
# [1] = target: T1, YCF1 (vacuolar membrane vesicles purified from DTY165 cells) (Saccharomyces cerevisiae, UniProt P39109); assay: [3H]DNP-GS uptake by vacuolar membrane vesicles purified from DTY165 cells; assay type: biochemical
# T1 construct: endogenous in cells; host or cells: S. cerevisiae DTY165 (wild type YCF1), vacuolar membrane vesicles
# In short: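 ATP-dependent [3H]DNP-GS (66.2 μM) transport measured by filtration and scintillation counting of Ficoll-purified yeast vacuolar vesicles (DTY165 wild type; DTY167 ycf1Δ), 1–60 min at 25 °C in sorbitol/Tris-Mes pH 8.0 with 3 mM ATP, 3 mM MgSO4 and gramicidin-D. Nonenergized uptake without ATP/Mg2+.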
# [2] = target: T1, YCF1 (vacuolar membrane vesicles purified from DTY165 cells); assay: biochemical; assay type: biochemical; conditions: read-out: Ki(DNP-GS) for inhibition of Cd.GS2 uptake
# In short: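 Vacuolar vesicles from wild-type (DTY165) or ycf1Δ (DTY167) yeast, washed free of DTT/EGTA into glycerol/Tris-Mes pH 8.0. MgATP-energized, uncoupler-insensitive uptake of 109Cd2+, GSH or purified radiolabeled Cd·GSn complexes measured at 25°C. Medium: 3 mM ATP/MgSO4, ATP-regenerating system, 5 μM gramicidin-D, Tris-Mes pH 8.0; washes contained 100 μM CdSO4.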
# [3] = tested on: vacuolar GS-X pump (vacuolar membrane vesicles, V. radiata hypocotyls); conditions: cited from earlier work
# [4] = tested on: endogenous GS-X pump of plant vacuolar membranes; conditions: read-out: Km for transport by endogenous plant vacuolar GS-X pump; cited from earlier work
# T1 sequence (P39109 whole entry): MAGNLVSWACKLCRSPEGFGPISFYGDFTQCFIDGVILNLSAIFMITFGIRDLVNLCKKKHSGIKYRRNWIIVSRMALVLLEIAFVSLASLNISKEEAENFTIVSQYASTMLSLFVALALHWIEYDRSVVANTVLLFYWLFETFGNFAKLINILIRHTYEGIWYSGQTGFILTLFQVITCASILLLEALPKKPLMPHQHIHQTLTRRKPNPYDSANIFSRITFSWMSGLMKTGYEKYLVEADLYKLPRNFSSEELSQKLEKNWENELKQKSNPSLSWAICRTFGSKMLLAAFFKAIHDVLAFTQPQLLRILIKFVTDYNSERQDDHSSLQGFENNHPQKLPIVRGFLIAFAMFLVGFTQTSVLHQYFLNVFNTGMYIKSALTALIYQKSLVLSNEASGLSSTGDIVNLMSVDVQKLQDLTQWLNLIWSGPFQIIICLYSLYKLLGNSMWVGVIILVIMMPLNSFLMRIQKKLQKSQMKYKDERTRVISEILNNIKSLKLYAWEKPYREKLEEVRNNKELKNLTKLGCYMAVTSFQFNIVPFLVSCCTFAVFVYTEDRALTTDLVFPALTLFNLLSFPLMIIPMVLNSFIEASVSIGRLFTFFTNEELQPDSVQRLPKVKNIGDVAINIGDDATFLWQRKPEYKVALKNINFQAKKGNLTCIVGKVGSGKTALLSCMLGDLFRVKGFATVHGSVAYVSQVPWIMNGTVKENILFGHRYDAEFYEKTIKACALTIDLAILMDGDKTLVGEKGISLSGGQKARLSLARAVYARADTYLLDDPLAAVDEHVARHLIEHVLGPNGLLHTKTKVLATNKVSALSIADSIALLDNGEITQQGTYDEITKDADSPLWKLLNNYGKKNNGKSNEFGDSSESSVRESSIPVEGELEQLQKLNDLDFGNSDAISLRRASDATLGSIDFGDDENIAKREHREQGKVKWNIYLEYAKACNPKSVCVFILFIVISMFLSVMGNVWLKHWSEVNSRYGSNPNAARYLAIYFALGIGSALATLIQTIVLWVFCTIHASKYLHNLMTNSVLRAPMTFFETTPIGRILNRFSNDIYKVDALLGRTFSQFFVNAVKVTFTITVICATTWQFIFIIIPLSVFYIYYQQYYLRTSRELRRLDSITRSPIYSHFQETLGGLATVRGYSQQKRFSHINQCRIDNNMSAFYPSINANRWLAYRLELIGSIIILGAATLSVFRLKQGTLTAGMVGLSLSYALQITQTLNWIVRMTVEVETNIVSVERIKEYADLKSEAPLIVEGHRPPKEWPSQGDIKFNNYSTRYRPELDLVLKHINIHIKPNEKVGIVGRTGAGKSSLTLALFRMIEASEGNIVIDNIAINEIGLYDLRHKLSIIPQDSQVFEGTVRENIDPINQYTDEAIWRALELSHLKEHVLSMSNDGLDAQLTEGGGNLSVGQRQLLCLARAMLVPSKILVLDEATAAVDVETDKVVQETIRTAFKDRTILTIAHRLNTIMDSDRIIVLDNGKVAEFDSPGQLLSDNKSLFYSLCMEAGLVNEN
compound,measurement,setting,value
"N[C@@H](CCC(=O)N[C@@H](CSc1ccc([N+](=O)[O-])cc1[N+](=O)[O-])C(=O)NCC(=O)O)C(=O)O [DNP-GS, S-(2,4-dinitrophenyl)glutathione]",Vmax(DNP-GS) of MgATP-dependent uncoupler-insensitive uptake,"[1]; 3 mM MgATP, 5 μM gramicidin D",51.0±16.3 nmol/mg/10 minutes and 51.0±6.3 nmol/mg/10 minutes
same,initial rate of DNP-GS uptake,"[1]; 3 mM MgATP, 66.2 μM DNP-GS",12.2 nmol/mg/min
same,"DNP-GS uptake, control","[1]; Table 1: 66.2 μM DNP-GS, 3 mM MgATP, no addition",77.7 ± 1.0 nmol/mg/10 minutes
same,"MgATP-dependent, uncoupler-insensitive DNP-GS uptake, control","[1]; Table 2: 5 μM gramicidin D, no compound",47.9 ± 2.5 nmol/mg/10 minutes
same,"MgATP-dependent, uncoupler-insensitive DNP-GS uptake, vacuolar membrane","[1]; Table 4, vacuolar membrane vesicles from DTY165 cells",69.9 ± 1.0 nmol/mg/10 min
same,"MgATP-dependent, uncoupler-insensitive DNP-GS uptake, crude microsomes",[1]; crude microsomes from DTY165 cells,2.5 ± 0.3 nmol/mg/10 min
same,Ki,[2],11.3 ± 2.1 µM
same,"rate of MgATP-dependent, uncoupler-insensitive DNP-GS uptake",[3]; Vigna radiata hypocotyl,5.8 nmol/mg/20 minutes
same,Km estimated previously in this system,[3],80 µM
same,Vmax of GS-X pump,[3]; comparison value for DNP-GS,12 nmol/mg/20 minutes
same,Km,[4],81.3 ± 41.8 µM
